Earlier results in paper PMC11696576, “Next generation thiazolyl ketone inhibitors of cytosolic phospholipase A2 α for targeted cancer therapy” (Nature Communications, 2025).

Target: T1, secreted GV sPLA2 (Homo sapiens, UniProt P39877)
T1 sequence (P39877 21-138): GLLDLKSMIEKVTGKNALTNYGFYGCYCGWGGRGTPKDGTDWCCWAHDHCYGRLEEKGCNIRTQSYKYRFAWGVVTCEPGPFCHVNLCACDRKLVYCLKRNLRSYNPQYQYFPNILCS
Design: method as in PMID 25152071
Settings: 0.091 mole fraction; previously published data ref 19; cited from earlier work

## CCCCCCCCc1ccc(OCC(=O)c2nc(C(=O)OC)cs2)cc1 [GK470]
  GV sPLA2 % Inhib: 41%
